Measurements: paper PMC11987006 (iScience, 2025)

Assays:
WT N2 animal [1] = experiment: salt chemotaxis learning with tyramine/octopamine, WT N2; assay type: in vivo, C. elegans; settings: 10 μM TA or OA or both in conditioning solutions or test plate agar
WT N2 animal [2] = experiment: salt chemotaxis with tyramine/octopamine, WT N2; assay type: in vivo, C. elegans; settings: 10 μM TA or OA or both in conditioning solutions or test plate agar

`NCCc1ccc(O)cc1` [TA, tyramine] was tested. Which “effect on SCL (learning index)” value (WT N2 animal [1]) did it give?
The value was “no obvious impact”.

And the “effect on salt chemotaxis” value (WT N2 animal [2])?
The value was “no obvious impact”.

Which “effect on SCL (learning index)” value (WT N2 animal [1]) does the source give for `NCC(O)c1ccc(O)cc1` (stereo not shown) [OA, octopamine] here?
The value was “no obvious impact”.

What about the “effect on salt chemotaxis” value (WT N2 animal [2]) of the same molecule?
The value was “no obvious impact”.
